Key:
[1] = biological target: T1, bovine catalase (Bos taurus, UniProt P00432); conditions: Kirkman and Gaetani 1984; cited from earlier work
T1 sequence (P00432 2-527 limits assumed): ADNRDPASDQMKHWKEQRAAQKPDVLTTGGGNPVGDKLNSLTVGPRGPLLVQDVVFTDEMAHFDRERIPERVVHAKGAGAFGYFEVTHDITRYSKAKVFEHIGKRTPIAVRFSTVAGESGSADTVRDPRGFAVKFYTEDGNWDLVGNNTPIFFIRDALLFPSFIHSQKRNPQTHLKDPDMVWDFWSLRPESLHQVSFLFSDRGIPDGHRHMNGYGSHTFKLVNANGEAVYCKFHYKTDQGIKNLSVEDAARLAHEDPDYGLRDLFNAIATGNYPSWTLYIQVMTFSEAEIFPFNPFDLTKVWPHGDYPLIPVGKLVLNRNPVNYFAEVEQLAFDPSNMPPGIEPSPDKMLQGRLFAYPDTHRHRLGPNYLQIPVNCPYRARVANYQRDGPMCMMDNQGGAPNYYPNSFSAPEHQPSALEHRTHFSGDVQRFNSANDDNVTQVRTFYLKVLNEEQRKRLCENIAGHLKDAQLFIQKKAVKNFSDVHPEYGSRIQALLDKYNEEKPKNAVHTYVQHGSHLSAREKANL

[2] = system: salicylic acid binding protein; experiment: Competitive [14C] salicylic acid binding assay (spin-column); parameters: species or system tobacco; conditions: [14C] salicylic acid 20 μM
Protocol: The 180 kDa native binding protein isolated was tested for binding affinity and specificity. A competitive assay was established using salicylic acid binding protein fractionated from plants as previously described.
A key element during the characterization and the purification process is a simple, inexpensive, sensitive and reliable method for determining the salicylic acid binding activity. For this purpose, spin-column exclusion chromatography was used to separate the bound [^14 C] salicylic acid (excluded) from the bulk free salicylic acid (included). Specifically, a 1.5 ml Eppendorf tube was punctured at the tip with a 20-gauge needle and a small amount of glass wool was added to cover the small hole. The tube was then filled with Bio-Gel P-6DG desalting gel (exclusion limit 6 KDa; purchased from Bio-Rad, Melville, N.Y.) which have been swollen in water. An alternative gel is Sephadex G-25 fine (from Pharmacia, Piscataway, N.J.). Excess liquid in the gel was removed and centrifuged for 5 minutes at full speed in a Dynamic centrifuge (Becton Dickinson). The process was then repeated several times until the gel filled the tube. After incubation of an aliquot of the extract or column fractions for 2 hr at 4° C. with 5 μM-20 μM [^14 C salicylic acid] (specifically radioactivity 55 Ci/mol; purchased from New England Nuclear), 150 μl of proteins binding sample was loaded onto the tube column, which was then rapidly centrifuged for 2 minutes at full speed and the solution of proteins and bound [^14 C-salicylic acid] that was excluded from the gel was collected into another tube that had been placed under the tube column during the centrifugation. One hundred microliters of this solution was then used to determine the amount of bound salicylic acid. […] For example, to determine the inhibitory effect of various salicylic acid analogues on salicylic acid binding activity, these individual analogues were included in the binding mixture containing both the protein and [^14 C] salicylic acid during the 2 hr incubation, and resulting binding activity was determined in comparison to the activity in the absence of these analogues. Likewise, to determine the effect of pH and antioxidants on the binding activity the protein sample was either dialyzed against a large volume of buffers with different pH or antioxidants were added to the protein sample to various concentrations and the resulting binding activities were then determined with the spin-column method in comparison with the activity determined in the absence of these treatments.

[3] = system: H2 O2; experiment: Abundance of H2O2 in treated tobacco leaves; type: in vivo; conditions: FIG. 11
Excerpt: The abundance of H2 O2 increased in SA- or 3AT-treated tobacco leaves by 50-60% over the control levels observed in water-treated leaves. […] Thus, elevated levels of H2 O2, and in turn, enhanced oxidative stress in vivo, were consistent with inhibition of catalase activity by SA observed in vitro.

[4] = system: resistance or PR gene expression; parameters: key: ++: indicates a high level of biological activity; +: indicates a lower level of biological activity; ±: indicates low, but detectable biological activity in some assays; -: indicates no biological activity; conditions: Table 3; values reported in literature; cited from earlier work
[5] = biological target: T2, catalase activity of SABP (Nicotiana tabacum, UniProt P49319); experiment: Catalase activity of highly purified SABP (luminol method); type: biochemical, tobacco; conditions: 0.05 h; 1 mM SA or analogue, 1 mM H2O2, 500 ng highly purified SABP
T2 sequence (P49319 1-492): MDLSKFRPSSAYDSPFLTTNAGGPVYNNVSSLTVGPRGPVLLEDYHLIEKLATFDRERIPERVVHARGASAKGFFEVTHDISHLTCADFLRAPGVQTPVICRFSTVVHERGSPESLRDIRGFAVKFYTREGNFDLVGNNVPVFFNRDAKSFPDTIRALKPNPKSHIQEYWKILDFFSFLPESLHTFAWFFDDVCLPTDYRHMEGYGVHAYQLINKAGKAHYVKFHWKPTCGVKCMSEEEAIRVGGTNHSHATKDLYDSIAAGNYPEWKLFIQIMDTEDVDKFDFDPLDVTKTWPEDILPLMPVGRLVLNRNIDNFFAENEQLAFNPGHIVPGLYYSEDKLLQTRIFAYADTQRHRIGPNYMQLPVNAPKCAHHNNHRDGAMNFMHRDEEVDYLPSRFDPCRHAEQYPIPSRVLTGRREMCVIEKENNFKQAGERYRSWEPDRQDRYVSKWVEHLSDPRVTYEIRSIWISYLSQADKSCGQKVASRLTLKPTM
Protocol: Aliquots (50 μl) were removed from the assay mixture at 30 second intervals to assay for amount of H2 O2 remaining using the luminol method as has been described by Warm and Laties, Phytochem. […] The tube was placed in the measuring chamber and assay was initiated with automatic injection into the mixture of 100 μl of 0.5 mM K3 Fe(CN)6 in 0.2N NH4 OH, pH 9.5. Measurements were integrated over 5 second periods. H2 O2 was calculated from the standard curve constructed with known amounts of H2 O2. Rate constants of SABP catalase activity in the presence or absence of SA or its analogues were then calculated based on a first-order mechanism.

[6] = system: ascorbate peroxidase; experiment: Ascorbate peroxidase activity in tobacco leaf extracts; type: biochemical, Nicotiana tabacum cv. Xanthi nc; conditions: 200 μM compound, corrected for quenching of auto oxidation
In short: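 Soluble extracts from leaves of 6–8-week Nicotiana tabacum cv. Xanthi nc, desalted into 50 mM potassium phosphate pH 7 with 100 μM ascorbate, were assayed (30–50 μg protein) with or without 100 or 1000 μM SA or INA. Ascorbate oxidation followed as A290 decrease; means of three replicates.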

[7] = system: SABP; parameters: concentration or dose not given beside the values; conditions: Table 6; previously published data (Chen et al. 1993); cited from earlier work

Row | Compound | Binding to bovine catalase [1] | Inhibition (%) 2× ([2]; 40 μM (2×) unlabeled competitor) | Inhibition (%) 10× ([2]; 200 μM (10×) unlabeled competitor) | Increase in abundance of H2O2 over water-treated leaves [3] | Biological activity [4] | inhibition at 1000 µM [5] | % Inhibition of ascorbate peroxidase [6] | Inhibition (%) [14C]SA binding [7]
1 | NC(=O)C1=CN([C@@H]2O[C@H](COP(=O)(O)OP(=O)(O)OC[C@H]3O[C@@H](n4cnc5c(N)ncnc54)[C@H](O)[C@@H]3O)[C@@H](O)[C@H]2O)C=CC1 [NADH, nicotinamide adenine dinucleotide] | tightly binds |  |  |  |  |  |  | 
2 | NC(=O)C1=CN([C@@H]2O[C@H](COP(=O)(O)OP(=O)(O)OC[C@H]3O[C@@H](n4cnc5c(N)ncnc54)[C@H](OP(=O)(O)O)[C@@H]3O)[C@@H](O)[C@H]2O)C=CC1 [NADPH, nicotinamide adenine dinucleotide phosphate] | tightly binds |  |  |  |  |  |  | 
3 | O=C(O)c1cccc(O)c1 [3-Hydroxybenzoic acid] |  | -2% | 0% | unable to enhance | - | 3.1% | 28 ± 7% | 1%

From US5989846A, “Assays to identify inducers of plant defense resistance” (Rutgers, The State University of New Jersey, priority 1995, dated 1999)
